Results reported in US9911927B2, “Compounds having semiconducting properties and related compositions and devices” (Flexterra, Inc., priority 2011, dated 2018).

What was measured:
[1] = Solubility in toluene at 60° C.; type: physicochemical
Procedure: The solubility of Cn-DNTTs (Cn=a linear alkyl chain) are very low in organic solvents (up to ˜80 mg/L in toluene at 60° C.) (see: Adv. Mater. 2011, 23, 1222-1225).

melting point [°C]	solubility ([1]; in toluene at 60° C.)	solubility relative to corresponding linear alkyl chain DNTT compounds ([1]; toluene at 60° C., times higher) [times]	Compound
280 to 281	–	–	CCCC(C)c1ccc2cc3c(cc2c1)sc1c2cc4ccc(C(C)CCC)cc4cc2sc31 (stereo not shown) [2,9-1MB-DNTT, 2,9-Bis(1-methylbutyl)dinaphtho [2,3-b:2′,3′-f]thieno[3,2-b]thiophene]
262 to 263	about 50 g/L	> 500	CCCCC(C)c1ccc2cc3c(cc2c1)sc1c2cc4ccc(C(C)CCCC)cc4cc2sc31 (stereo not shown) [2,9-1MP-DNTT, 2,9-Bis(1-methylpentyl)dinaphtho[2,3-b:2′,3′-f]thieno[3,2-b]thiophene]
